According to patent publication US10428080B2, “TBK/IKK inhibitor compounds and uses thereof” (Merck Patent GmbH, priority 2015, dated 2019):
Counter-ions that a name gives are not always drawn.

Legend:
TBK1 = target: T1, TBK1 (Homo sapiens, UniProt Q9UHD2); assay: TBK Biochemical Assay; details: read-out: TBK1 IC50
T1 sequence (Q9UHD2 1-729): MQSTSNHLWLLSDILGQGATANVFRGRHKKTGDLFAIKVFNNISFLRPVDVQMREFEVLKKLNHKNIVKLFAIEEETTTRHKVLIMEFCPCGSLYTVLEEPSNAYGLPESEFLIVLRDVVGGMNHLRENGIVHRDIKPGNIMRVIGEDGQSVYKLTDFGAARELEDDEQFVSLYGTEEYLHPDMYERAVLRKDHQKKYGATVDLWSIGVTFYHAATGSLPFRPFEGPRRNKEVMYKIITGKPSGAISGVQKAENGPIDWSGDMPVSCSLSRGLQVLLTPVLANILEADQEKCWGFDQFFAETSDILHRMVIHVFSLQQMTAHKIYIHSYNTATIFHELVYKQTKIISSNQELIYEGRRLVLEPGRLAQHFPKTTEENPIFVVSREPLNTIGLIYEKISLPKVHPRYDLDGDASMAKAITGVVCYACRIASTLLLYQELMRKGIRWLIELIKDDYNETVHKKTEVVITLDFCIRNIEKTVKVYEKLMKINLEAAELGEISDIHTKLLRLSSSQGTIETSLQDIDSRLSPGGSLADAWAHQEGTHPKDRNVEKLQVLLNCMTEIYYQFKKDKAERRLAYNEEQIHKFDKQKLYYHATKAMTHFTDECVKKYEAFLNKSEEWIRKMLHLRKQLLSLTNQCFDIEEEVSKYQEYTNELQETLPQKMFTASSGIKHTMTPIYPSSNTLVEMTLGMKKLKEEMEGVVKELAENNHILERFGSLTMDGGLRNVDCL
Outline: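 Caliper LabChip mobility-shift readout of substrate and product after 90 min of TBK1 reaction at 25° C and stop-buffer addition. Compounds tested in 1:4 serial dilution over 10 points from 30 uM final at 1% DMSO; staurosporine 10 uM final defines full inhibition.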

IKKε = target: T2, IKKε (Homo sapiens, UniProt Q14164); assay: IKKe Biochemical Assay; details: read-out: IKKε IC50
T2 sequence (Q14164 1-716): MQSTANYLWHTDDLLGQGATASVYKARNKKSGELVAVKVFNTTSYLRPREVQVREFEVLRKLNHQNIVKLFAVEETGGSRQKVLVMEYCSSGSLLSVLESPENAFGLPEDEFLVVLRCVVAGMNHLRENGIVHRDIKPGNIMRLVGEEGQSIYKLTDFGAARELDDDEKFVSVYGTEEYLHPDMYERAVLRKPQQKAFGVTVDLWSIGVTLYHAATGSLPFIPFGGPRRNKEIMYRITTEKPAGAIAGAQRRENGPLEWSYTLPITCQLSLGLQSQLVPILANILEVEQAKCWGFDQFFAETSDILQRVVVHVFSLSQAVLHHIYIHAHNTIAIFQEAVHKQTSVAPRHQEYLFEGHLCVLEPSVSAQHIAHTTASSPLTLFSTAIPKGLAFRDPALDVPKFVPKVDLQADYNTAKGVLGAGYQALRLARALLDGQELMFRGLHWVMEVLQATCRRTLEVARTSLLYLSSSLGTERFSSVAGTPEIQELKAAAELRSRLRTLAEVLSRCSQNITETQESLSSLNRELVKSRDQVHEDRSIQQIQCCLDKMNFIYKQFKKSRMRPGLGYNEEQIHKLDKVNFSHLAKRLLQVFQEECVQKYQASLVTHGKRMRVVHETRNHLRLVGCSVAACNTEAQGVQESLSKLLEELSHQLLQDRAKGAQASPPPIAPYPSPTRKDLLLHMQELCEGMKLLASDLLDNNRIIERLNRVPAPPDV
Outline: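 Activity was measured as mobility-shift separation of phosphorylated from unphosphorylated substrate on a LabChip EZ Reader. Compound was titrated from 30 uM final in 10 points, 1:4 steps, with 1% DMSO, and enzyme plus substrate reacted 90 min at 25° C before stop buffer. Control wells held 10 uM staurosporine.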

Structure (SMILES) | IC50 (TBK1) [µM] | IC50 (IKKε) [µM]
CN(C)C(=O)c1ccc(-c2cc3nccc(-c4ccc(NC5CCOCC5)c(C#N)c4)c3o2)nc1 [Compound 244, 6-(7-(3-cyano-4-(tetrahydro-2H-pyran-4-ylamino)phenyl)furo[3,2-b]pyridin-2-yl)-N,N-dimethylnicotinamide] | 0.1 to 1 | 0.1 to 1
CN(C)C(=O)c1ccc(-c2cc3nccc(-c4cc(F)c(OC5CCOCC5)c(C#N)c4)c3o2)nc1 [Compound 245, 6-(7-(3-cyano-5-fluoro-4-(tetrahydro-2H-pyran-4-yloxy)phenyl)furo[3,2-b]pyridin-2-yl)-N,N-dimethylnicotinamide hydrochloride] | 0.1 to 1 | 0.1 to 1
CN(C)C(=O)c1ccc(-c2cc3nccc(-c4cc(F)c(NC5CCOCC5)c(C#N)c4)c3o2)nc1 [Compound 246] | 0.1 to 1 | 0.1 to 1
CN(C)C(=O)c1cnc(-c2cc3nccc(-c4cc(F)c(OC5CCOCC5)c(C#N)c4)c3o2)c(F)c1 [Compound 247, 6-(7-(3-cyano-5-fluoro-4-(tetrahydro-2H-pyran-4-yloxy)phenyl)furo[3,2-b]pyridin-2-yl)-5-fluoro-N,N-dimethylnicotinamide] | 0.1 to 1 | 0.1 to 1
CN(C)C(=O)c1cnc(-c2cc3nccc(-c4ccc(NC5CCOCC5)c(C#N)c4)c3o2)c(F)c1 [Compound 249, 6-(7-(3-cyano-4-(tetrahydro-2H-pyran-4-ylamino)phenyl)furo[3,2-b]pyridin-2-yl)-5-fluoro-N,N-dimethylnicotinamide] | 0.1 to 1 | 0.1 to 1
CN(C)C(=O)c1ccc(-c2cc3nccc(-c4ccc(NC5CCOCC5)c(C#N)c4)c3o2)c(F)c1 [Compound 250, 4-(7-(3-cyano-4-(tetrahydro-2H-pyran-4-ylamino)phenyl)furo[3,2-b]pyridin-2-yl)-3-fluoro-N,N-dimethylbenzamide] | 0.1 to 1 | 0.1 to 1
COc1cc(C(=O)N(C)C)cc(F)c1-c1cc2nccc(-c3ccc(NC4CCOCC4)c(C#N)c3)c2o1 [Compound 255, 4-(7-(3-cyano-4-(tetrahydro-2H-pyran-4-ylamino)phenyl)furo[3,2-b]pyridin-2-yl)-3-fluoro-5-methoxy-N,N-dimethylbenzamide] | < 0.1 | < 0.1
CCN(CC)C(=O)c1ccc(-c2cc3nccc(-c4ccc(OC5CCOCC5)c(C#N)c4)c3o2)c(OC)c1 [Compound 256, 4-(7-(3-cyano-4-(tetrahydro-2H-pyran-4-yloxy)phenyl)furo[3,2-b]pyridin-2-yl)-N,N-diethyl-3-methoxybenzamide hydrochloride] | < 0.1 | < 0.1
CCCN(C)C(=O)c1ccc(-c2cc3nccc(-c4ccc(OC5CCOCC5)c(C#N)c4)c3o2)c(OC)c1 [Compound 257, 4-(7-(3-cyano-4-(tetrahydro-2H-pyran-4-yloxy)phenyl)furo[3,2-b]pyridin-2-yl)-3-methoxy-N-methyl-N-propylbenzamide hydrochloride] | < 0.1 | < 0.1
COc1cc(C(=O)N(C)CCCO)ccc1-c1cc2nccc(-c3ccc(OC4CCOCC4)c(C#N)c3)c2o1 [Compound 258, 4-(7-(3-cyano-4-(tetrahydro-2H-pyran-4-yloxy)phenyl)furo[3,2-b]pyridin-2-yl)-N-(3-hydroxypropyl)-3-methoxy-N-methylbenzamide hydrochloride] | < 0.1 | < 0.1
CCN(CC)C(=O)c1ccc(-c2cc3nccc(-c4ccc(NC5CCOCC5)c(C#N)c4)c3o2)c(OC)c1 [Compound 259, 4-(7-(3-cyano-4-(tetrahydro-2H-pyran-4-ylamino)phenyl)furo[3,2-b]pyridin-2-yl)-N,N-diethyl-3-methoxybenzamide] | < 0.1 | < 0.1
COc1cc(C(=O)N(C)CC(F)F)ccc1-c1cc2nccc(-c3ccc(OC4CCOCC4)c(C#N)c3)c2o1 [Compound 260] | < 0.1 | < 0.1
COc1cc(C(=O)N(C)CCCO)ccc1-c1cc2nccc(-c3ccc(NC4CCOCC4)c(C#N)c3)c2o1 [Compound 261, 4-(7-(3-cyano-4-(tetrahydro-2H-pyran-4-ylamino)phenyl)furo[3,2-b]pyridin-2-yl)-N-(3-hydroxypropyl)-3-methoxy-N-methylbenzamide] | < 0.1 | < 0.1
CCN(C)C(=O)c1ccc(-c2cc3nccc(-c4ccc(NC5CCOCC5)c(C#N)c4)c3o2)c(OC)c1 [Compound 262, 4-(7-(3-cyano-4-(tetrahydro-2H-pyran-4-ylamino)phenyl)furo[3,2-b]pyridin-2-yl)-N-ethyl-3-methoxy-N-methylbenzamide] | < 0.1 | < 0.1
CCc1cc(C(=O)N(C)C)ccc1-c1cc2nccc(-c3ccc(OC4CCOCC4)c(C#N)c3)c2o1 [Compound 263, 4-(7-(3-cyano-4-(tetrahydro-2H-pyran-4-yloxy)phenyl)furo[3,2-b]pyridin-2-yl)-3-ethyl-N,N-dimethylbenzamide] | < 0.1 | < 0.1
CN(C)C(=O)c1ccc(-c2cc3nccc(-c4ccc(OC5CCOCC5)c(C#N)c4)c3o2)c(O)c1 [Compound 264, 4-(7-(3-cyano-4-(tetrahydro-2H-pyran-4-yloxy)phenyl)furo[3,2-b]pyridin-2-yl)-3-hydroxy-N,N-dimethylbenzamide] | < 0.1 | < 0.1
COc1cc(C(=O)N(C)C)ccc1-c1cc2ncc(Cl)c(-c3ccc(OC4CCOCC4)c(C#N)c3)c2o1 [Compound 265, 4-(6-chloro-7-(3-cyano-4-(tetrahydro-2H-pyran-4-yloxy)phenyl)furo[3,2-b]pyridin-2-yl)-3-methoxy-N,N-dimethylbenzamide] | 0.1 to 1 | 0.1 to 1
COc1cc(C(=O)N(C)C)ccc1-c1cc2ncc(Cl)c(-c3ccc(NC4CCOCC4)c(C#N)c3)c2o1 [Compound 266, 4-(6-chloro-7-(3-cyano-4-(tetrahydro-2H-pyran-4-ylamino)phenyl)furo[3,2-b]pyridin-2-yl)-3-methoxy-N,N-dimethylbenzamide] | 0.1 to 1 | 0.1 to 1
CN(CCO)C(=O)c1ccc(-c2cc3ncc(Cl)c(-c4ccc(OC5CCOCC5)c(C#N)c4)c3o2)c(F)c1 [Compound 267, 4-(6-chloro-7-(3-cyano-4-(tetrahydro-2H-pyran-4-yloxy)phenyl)furo[3,2-b]pyridin-2-yl)-3-fluoro-N-(2-hydroxyethyl)-N-methylbenzamide] | 1 to 5 | > 5
COc1cc(C(=O)N(C)CCO)ccc1-c1cc2ncc(C)c(-c3ccc(NC4CCOCC4)c(C#N)c3)c2o1 [Compound 268, 4-(7-(3-cyano-4-(tetrahydro-2H-pyran-4-ylamino)phenyl)-6-methylfuro[3,2-b]pyridin-2-yl)-N-(2-hydroxyethyl)-3-methoxy-N-methylbenzamide] | 0.1 to 1 | 0.1 to 1
COc1cc(C(=O)N(C)C)ccc1-c1cc2ncc(C)c(-c3ccc(OC4CCOCC4)c(C#N)c3)c2o1 [Compound 269, 4-(7-(3-cyano-4-(tetrahydro-2H-pyran-4-yloxy)phenyl)-6-methylfuro[3,2-b]pyridin-2-yl)-3-methoxy-N,N-dimethylbenzamide hydrochloride] | 0.1 to 1 | 0.1 to 1
COc1cc(C(=O)N(C)C)cnc1-c1cc2nccc(-c3ccc(NC4CCOCC4)c(C#N)c3)c2o1 [Compound 270, 6-(7-(3-cyano-4-(tetrahydro-2H-pyran-4-ylamino)phenyl)furo[3,2-b]pyridin-2-yl)-5-methoxy-N,N-dimethylnicotinamide hydrochloride] | < 0.1 | < 0.1
